Reference: patent US9663495B2 (YUHAN CORPORATION, priority 2013, dated 2017)

Assays:
male C57BL/6 mice = assay: Oral Glucose Tolerance Test (OGTT); assay type: in vivo; parameters: concentration or dose not given beside the values; details: fasted male C57BL/6 mice, oral administration 30 minutes before oral glucose; AUCglucose 0-120 minutes versus negative control group
Description: The oral glucose tolerance test of the compounds according to the present invention was carried out according to the procedures disclosed in Andrikopoulos S, Blair A R, Deluca N, Fam B C, Proietto J, Am J Physiol Endocrinol Metab. 2008, Vol 295, E1323-1332. Briefly, male C57BL/6 mice at 8 to 9 weeks of age having 20 g to 25 g of body weight (Orient Bio Inc. Korea) were allowed to acclimatize to the surroundings (temperature: 20±2° C., humidity: 40-60%, light/dark cycle: 12 hours) for 1 week. During the acclimatization, the mice were given ad libitum access to feed and water. The mice were fasted from 18 hours before the test, except for allowing free access to water. After measuring the mice′ body weights and blood sugar levels, they were divided into test groups so as to have similar blood sugar levels. The mice were orally administered with a mixture of test compound and the diluent (0.5% solution of MC1500 (Sigma)). At 30 minutes after the administration, the mice were also orally administered with 20% glucose solution in an amount of 0.1 ml per 10 g of body weight. The blood samples were taken from the tail vain at 0 (right before the administration of the glucose solution), 15, 30, 60, 90, and 120 minutes after the administration of the glucose solution; and the blood sugar levels thereof were measured with a blood glucose test meter (GlucoDr. AGM-3000, All Medicus Co. Ltd.). The graph for blood sugar level on time for each test compound was plotted from the respective blood sugar values; and then area under the curve (AUCglucose) was determined. The inhibition rate of blood sugar (%) was calculated from the following formula. Inhibition rate of blood sugar (%)=[(AUCglucose of the negative control group−AUCglucose of the test group)/AUCglucose of the negative control group]×100

GPR119 [1] = biological target: T1, GPR119 (Homo sapiens, UniProt Q8TDV5); assay: cAMP Accumulation Assay (GPR119 CRE-bla CHO-K1 cells, LiveBLAzer-FRET B/G); assay type: cell-based; details: (Emax of the test compound/Emax of MBX-2982)x100, 5 hours incubation
T1 construct: host or cells: CHO-K1 (GPR119 CRE-bla, doxycycline-induced)
T1 sequence (Q8TDV5 1-335): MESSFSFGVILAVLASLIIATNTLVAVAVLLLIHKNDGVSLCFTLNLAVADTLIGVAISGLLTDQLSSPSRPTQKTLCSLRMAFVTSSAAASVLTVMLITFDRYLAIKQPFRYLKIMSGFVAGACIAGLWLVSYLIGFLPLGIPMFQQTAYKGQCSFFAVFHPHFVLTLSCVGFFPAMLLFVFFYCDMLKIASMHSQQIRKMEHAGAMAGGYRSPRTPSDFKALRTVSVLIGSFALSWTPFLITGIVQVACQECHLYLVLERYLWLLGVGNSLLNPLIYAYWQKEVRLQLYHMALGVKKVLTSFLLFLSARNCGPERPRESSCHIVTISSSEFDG

GPR119 [2] = biological target: T1, GPR119; assay: as above; assay type: cell-based; details: for EC50: 5 hours incubation; for Emax (Fold): maximum activity, response ratio versus non-treated control group
Description: 32 μl of an assay medium (DMEM supplemented with GlutaMax™ 99%, dialyzed FBS 1%, non-essential amino acid 1 mM, HEPES 25 mM, penicillin 100 U/ml, and streptomycin 100 μg/ml) was added to each well of a 384 black well plate and then the GPR119 CRE-bla CHO-K1 cells (Invitrogen) were seeded in 1×10^4 cells per well. Doxycycline was dissolved in the assay medium in the concentration of 1 μg/ml. The resulting solution (4 μl) was added to each well, which was then incubated in a 5% CO 2 incubator at 37° C. for about 20 to 24 hours. Each test compounds were diluted with the assay medium to prepare 10 samples, which have concentrations ranging from […], respectively. Each samples (8 μl) was added to each well, which was then incubated in a 5% CO2 incubator at 37° C. for 5 hours. In case of the control group, the well was treated with a solution (8 μl) prepared by diluting dimethyl sulfoxide (DMSO) in the assay medium to 1%. The substrate mixture (8 μl) was added to each well, which was then left under darkness at room temperature for 2 hours. The substrate mixture contains the followings: 1 mM LiveBLAzer™-FRET B/G(CCF4-AM) substrate 6 μl, solution B 60 μl, solution C 904 μl, and solution D 30 μl.
Fluorescence intensity was determined under the wavelength conditions of 400 nm/465 nm (excitation/emission) for the blue channel and 400 nm/535 nm (excitation/emission) for the green channel, with the fluorescence microplate reader (SpectraFluor Plus. TECAN). The net activity of each well was calculated by subtracting the average value of the cell-free control group from the value of the unstimulated (i.e., non-treated) control group or the stimulated (i.e., test compound-treated) group at each wavelength. MBX-2982 (Metabolex) was used as a control drug. The response ratio was calculated by dividing the net signal ratio (465 nm/535 nm) of the control drug or the test compound by the net signal ratio (465 nm/535 nm) of the non-treated control group. The relative ratio (R.R) was calculated by dividing the maximum activity [Emax (fold)] of the test compound (i.e., % activity in comparison with the background) by the maximum activity [Emax (fold)] of the control drug (MBX-2982) [Emax (% RR)=(Emax of the test compound/Emax of MBX-2982)×100]. EC50 (half maximal effective concentration) was calculated using the software for statistical analysis “Prism 5.0 (GraphPad)”, based on the values obtained according to concentrations of the test compounds.

| Structure (SMILES) | Emax (% RR) (GPR119 [1]) | EC50 (GPR119 [2]) [nM] | Emax (Fold) (GPR119 [2]) | Inhibition rate of blood sugar (%) (male C57BL/6 mice) |
| --- | --- | --- | --- | --- |
| CCN(CC)CCn1ncn(-c2ccc(-c3cnc(N4CCC(N(C)C(=O)OC(C)(C)C)CC4)c(C#N)c3)cc2F)c1=O [Example 61, tert-butyl 1-(3-cyano-5-(4-(1-(2-(diethylamino)ethyl)-5-oxo-1H-1,2,4-triazol-4(5H)-yl)-3-fluorophenyl)pyridin-2-yl)piperidin-4-yl(methyl)carbamate] | – | – | – | 18.0 |
| CC(C)c1nc(C2CCN(c3ncc(-c4ccc(-n5cnn(CC(N)=O)c5=O)cc4)cc3C#N)CC2)no1 [Example 72, 2-(4-(4-(5-cyano-6-(4-(5-isopropyl-1,2,4-oxadiazol-3-yl)piperidin-1-yl)pyridin-3-yl)phenyl)-5-oxo-4,5-dihydro-1H-1,2,4-triazol-1-yl)acetamide] | – | – | – | 16.5 |
| CCc1cnc(N2CCN(c3ncc(-c4ccc(-n5cnn(C(C)C)c5=O)c(F)c4)cc3C#N)CC2)nc1 [Example 44, 2-(4-(5-ethylpyrimidin-2-yl)piperazin-1-yl)-5-(3-fluoro-4-(1-isopropyl-5-oxo-1H-1,2,4-triazol-4(5H)-yl)phenyl)nicotinonitrile sulfonate] | – | – | – | 27.0 |
| CCCn1ncn(-c2ccc(-c3ccc(N4CCN(C(=O)OC(C)(C)C)CC4C(F)(F)F)nc3)cc2F)c1=O (centres unmarked) [Example 50, tert-butyl 4-(5-(3-fluoro-4-(5-oxo-1-propyl-1H-1,2,4-triazol-4(5H)-yl)phenyl)pyridin-2-yl)-3-(trifluoromethyl)piperazin-1-carboxylate] | – | – | – | 15.6 |
| CCc1cnc(N2CCN(c3ncc(-c4ccc(-n5cnn(CC(=O)OC)c5=O)c(F)c4)cc3C#N)[C@@H](C)C2)nc1 [Example 13, (S)-methyl 2-(4-(4-(5-cyano-6-(4-(5-ethylpyrimidin-2-yl)-2-methylpiperazin-1-yl)pyridin-3-yl)-2-fluorophenyl)-5-oxo-4,5-dihydro-1H-1,2,4-triazol-1-yl)acetate] | 102.0 | 114 | 2.9 | – |
| CCN(CC)CCn1ncn(-c2ccc(-c3cnc(N4CCC(c5nc(C(C)C)no5)CC4)c(C#N)c3)cc2F)c1=O [Example 63, 5-(4-(1-(2-(diethylamino)ethyl)-5-oxo-1H-1,2,4-triazol-4(5H)-yl)-3-fluorophenyl)-2-(4-(3-isopropyl-1,2,4-oxadiazol-5-yl)piperidin-1-yl)nicotinonitrile] | – | – | – | 27.7 |
| CC(C)n1ncn(-c2ccc(-c3cnc(N4CCN(C(=O)OC(C)(C)C)C[C@@H]4C)nc3)cc2F)c1=O [Example 3, (S)-tert-butyl 4-(5-(3-fluoro-4-(1-isopropyl-5-oxo-1H-1,2,4-triazol-4(5H)-yl)phenyl)pyrimidin-2-yl)-3-methylpiperazin-1-carboxylate] | 113.4 | 62 | 3.4 | – |
| CCc1cnc(N2CCN(c3ncc(-c4ccc(-n5cnn(C)c5=O)c(F)c4)cn3)[C@@H](C)C2)nc1 [Example 7, (S)-4-(4-(2-(4-(5-ethylpyrimidin-2-yl)-2-methylpiperazin-1-yl)pyrimidin-5-yl)-2-fluorophenyl)-1-methyl-1H-1,2,4-triazol-5(4H)-one] | 111.5 | 26 | 2.5 | – |

Now from value to compound, other results behind:

| Emax (% RR) (GPR119 [1]) | EC50 (GPR119 [2]) [nM] | Emax (Fold) (GPR119 [2]) | Structure (SMILES) | Inhibition rate of blood sugar (%) (male C57BL/6 mice) |
| --- | --- | --- | --- | --- |
| 112.1 | 9 | 3.1 | CCc1cnc(N2CCN(c3ncc(-c4ccc(-n5cnn(CCOC)c5=O)cc4)cc3C#N)CC2)nc1 [Example 40, 2-(4-(5-ethylpyrimidin-2-yl)piperazin-1-yl)-5-(4-(1-(2-methoxyethyl)-5-oxo-1H-1,2,4-triazol-4(5H)-yl)phenyl)nicotinonitrile] | 17.2 |
| 141.6 | 12 | 3.2 | CC(C)c1nc(N2CCN(c3ncc(-c4ccc(-n5cnn([C@H]6CCOC6)c5=O)c(F)c4)cc3C#N)CC2)no1 [Example 47, (S)-5-(3-fluoro-4-(5-oxo-1-(tetrahydrofuran-3-yl)-1H-1,2,4-triazol-4(5H)-yl)phenyl)-2-(4-(5-isopropyl-1,2,4-oxadiazol-3-yl)piperazin-1-yl)nicotinonitrile] | 32.7 |
| 125.1 | 14.8 | 3.3 | CCc1cnc(N2CCN(c3ncc(-c4ccc(-n5cnn(CCN6CCCC6)c5=O)c(F)c4)cc3C#N)[C@@H](C)C2)nc1 [Example 14] | 18.6 |
| 116.0 | 2.6 | 3.3 | CCc1cnc(N2CCN(c3ncc(-c4ccc(-n5cnn(CC(C)(C)C#N)c5=O)c(F)c4)cc3C#N)[C@@H](C)C2)nc1 [Example 25, (S)-5-(4-(1-(2-cyano-2-methylpropyl)-5-oxo-1H-1,2,4-triazol-4(5H)-yl)-3-fluorophenyl)-2-(4-(5-ethylpyrimidin-2-yl)-2-methylpiperazin-1-yl)nicotinonitrile] | – |
| 122.1 | 2.5 | 3.1 | CCCn1ncn(-c2ccc(-c3cnc(N4CCC(c5noc(C(C)C)n5)CC4)c(C#N)c3)cc2F)c1=O [Example 66, 5-(3-fluoro-4-(5-oxo-1-propyl-1H-1,2,4-triazol-4(5H)-yl)phenyl)-2-(4-(5-isopropyl-1,2,4-oxadiazol-3-yl)piperidin-1-yl)nicotinonitrile] | – |
| 101.8 | 19.6 | 2.9 | COCCn1ncn(-c2ccc(-c3cnc(N4CCC(c5nnc(C(F)(F)F)o5)CC4)c(C#N)c3)cc2F)c1=O [Example 76, 5-(3-fluoro-4-(1-(2-methoxyethyl)-5-oxo-1H-1,2,4-triazol-4(5H)-yl)phenyl)-2-(4-(5-(trifluoromethyl)-1,3,4-oxadiazol-2-yl)piperidin-1-yl)nicotinonitrile] | – |
| 123.8 | 2.4 | 3.6 | CCn1ncn(-c2ccc(-c3cnc(N4CCC(c5nc(C(C)C)no5)CC4)c(C#N)c3)cc2)c1=O [Example 65, 5-(4-(1-ethyl-5-oxo-1H-1,2,4-triazol-4(5H)-yl)phenyl)-2-(4-(3-isopropyl-1,2,4-oxadiazol-5-yl)piperidin-1-yl)nicotinonitrile] | – |
